Inconclusive results and toxic doses are left out. Rule as the data show it: active = T/C of 150% or more; inactive = T/C below 125%.
System: L1210 leukemia ip in BDF1 mice, survival T/C
Experiment: NCI In Vivo Anticancer Drug Screen. Data for tumor model L1210 Leukemia (intraperitoneal) in B6D2F1 (BDF1) mice
Conditions: endpoint: mean survival time, higher = longer survival
Procedure, shortened: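 Transplanted-tumor mice were given test agent; controls received vehicle only. Survival readings from the two groups were divided (treated over control).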

[1] = dose: 100.0 mg/kg/injection, schedule: Q04DX003 (ip), vehicle: saline with Tween-80
[2] = dose: 200.0 mg/kg/injection, schedule: Q04DX003 (ip), vehicle: saline with Tween-80
[3] = dose: 400.0 mg/kg/injection, schedule: Q04DX003 (ip), vehicle: saline with Tween-80
[4] = dose: 50.0 mg/kg/injection, schedule: Q01DX009 (ip), vehicle: saline
[5] = dose: 100.0 mg/kg/injection, schedule: Q01DX009 (ip), vehicle: saline
[6] = dose: 100.0 mg/kg/injection, schedule: Q04DX003 (ip), vehicle: saline
[7] = dose: 200.0 mg/kg/injection, schedule: Q01DX009 (ip), vehicle: saline
[8] = dose: 200.0 mg/kg/injection, schedule: Q04DX003 (ip), vehicle: saline
[9] = dose: 100.0 mg/kg/injection, schedule: Q04DX002 (ip), vehicle: Klucel (hydroxypropylcellulose) (HPC)
[10] = dose: 200.0 mg/kg/injection, schedule: Q04DX002 (ip), vehicle: Klucel (hydroxypropylcellulose) (HPC)
[11] = dose: 50.0 mg/kg/injection, schedule: Q04DX003 (ip), vehicle: saline
[12] = dose: 200.0 mg/kg/injection, schedule: Q01DX001 (ip), vehicle: saline

Measured: T/C

O=[N+]([O-])c1ccc(/C=C\c2ccc(Cl)cc2S(=O)(=O)F)c(Cl)c1
inactive: dose: 100.0 mg/kg/injection, schedule: Q01DX009 (ip), vehicle: saline sonified 97 % of control | [1] 102 % of control | dose: 200.0 mg/kg/injection, schedule: Q01DX009 (ip), vehicle: saline sonified 97 % of control | [2] 96 % of control | dose: 400.0 mg/kg/injection, schedule: Q01DX009 (ip), vehicle: saline sonified 96 % of control | [3] 100 % of control

CN(/N=C/c1ccccn1)C(N)=S
inactive: dose: 75.0 mg/kg/injection, schedule: Q01DX001 (ip), vehicle: carboxymethylcellulose (CMC) 96 % of control | dose: 150.0 mg/kg/injection, schedule: Q01DX001 (ip), vehicle: carboxymethylcellulose (CMC) 96 % of control | dose: 300.0 mg/kg/injection, schedule: Q01DX001 (ip), vehicle: carboxymethylcellulose (CMC) 97 % of control

Cc1ccc(C(C)C)cc1NC(=O)c1cccc([N+](=O)[O-])c1
inactive: dose: 100.0 mg/kg/injection, schedule: Q01DX009 (ip), vehicle: other 98 % of control | dose: 200.0 mg/kg/injection, schedule: Q01DX009 (ip), vehicle: other 88 % of control | dose: 400.0 mg/kg/injection, schedule: Q01DX009 (ip), vehicle: other 98 % of control

O=C1/C(=C/c2ccco2)CC2CCCCC12 (configuration not stated)
inactive: [4] 95 % of control | [5] 102 % of control | [6] 88 % of control | [7] 90 % of control | [8] 102 % of control

IC1CCCCC1[n+]1ccccc1 (configuration not stated)
inactive: dose: 100.0 mg/kg/injection, schedule: Q04DX003 (sc), vehicle: olive oil, sesame oil, peanut oil 105 % of control | dose: 200.0 mg/kg/injection, schedule: Q04DX003 (sc), vehicle: olive oil, sesame oil, peanut oil 103 % of control | dose: 400.0 mg/kg/injection, schedule: Q04DX003 (sc), vehicle: olive oil, sesame oil, peanut oil 101 % of control

NC(=S)N/N=C/c1c(Cl)n(C(=O)c2ccc(Cl)cc2)c2ccccc12
inactive: dose: 50.0 mg/kg/injection, schedule: Q04DX002 (ip), vehicle: Klucel (hydroxypropylcellulose) (HPC) 91 % of control | [9] 87 % of control | [10] 91 % of control

CCOc1ccc2[nH]c(C)c(CC(=O)O)c2c1
inactive: dose: 100.0 mg/kg/injection, schedule: Q01DX001 (ip), vehicle: saline with Tween-80 97 % of control | dose: 200.0 mg/kg/injection, schedule: Q01DX001 (ip), vehicle: saline with Tween-80 103 % of control | dose: 400.0 mg/kg/injection, schedule: Q01DX001 (ip), vehicle: saline with Tween-80 97 % of control

CCN(CC)CCOC(=O)Nc1ccccc1
inactive: [11] 98 % of control | [6] 90 % of control

O=C1OCC/C1=C/OCCCCO/C=C1/CCOC1=O
inactive: [9] 97 % of control | [10] 97 % of control | dose: 400.0 mg/kg/injection, schedule: Q04DX002 (ip), vehicle: Klucel (hydroxypropylcellulose) (HPC) 94 % of control

Clc1ccc2c(c1)Cc1cc(N=Cc3ccccc3Cl)ccc1-2
inactive: dose: 12.5 mg/kg/injection, schedule: Q01DX001 (ip), vehicle: saline 97 % of control | dose: 12.5 mg/kg/injection, schedule: Q04DX003 (ip), vehicle: saline 92 % of control | dose: 25.0 mg/kg/injection, schedule: Q01DX001 (ip), vehicle: saline 87 % of control | dose: 25.0 mg/kg/injection, schedule: Q04DX003 (ip), vehicle: saline 93 % of control | dose: 50.0 mg/kg/injection, schedule: Q01DX001 (ip), vehicle: saline 106 % of control | [11] 87 % of control | dose: 65.0 mg/kg/injection, schedule: Q01DX Z (ip), vehicle: carboxymethylcellulose (CMC) 90 % of control | dose: 75.0 mg/kg/injection, schedule: Q04DX003 (ip), vehicle: saline 101 % of control | dose: 115.0 mg/kg/injection, schedule: Q04DX003 (ip), vehicle: saline 89 % of control | dose: 125.0 mg/kg/injection, schedule: Q01DX Z (ip), vehicle: carboxymethylcellulose (CMC) 96 % of control | dose: 170.0 mg/kg/injection, schedule: Q04DX003 (ip), vehicle: saline 103 % of control | [12] 89 % of control | dose: 250.0 mg/kg/injection, schedule: Q01DX Z (ip), vehicle: carboxymethylcellulose (CMC) 102 % of control | dose: 500.0 mg/kg/injection, schedule: Q01DX Z (ip), vehicle: carboxymethylcellulose (CMC) 102 % of control

COc1ccc(OC)c2ccccc12
inactive: dose: 50.0 mg/kg/injection, schedule: Q01DX005 (ip), vehicle: saline with Tween-80 101 % of control | dose: 100.0 mg/kg/injection, schedule: Q01DX005 (ip), vehicle: saline with Tween-80 101 % of control | dose: 200.0 mg/kg/injection, schedule: Q01DX005 (ip), vehicle: saline with Tween-80 111 % of control | dose: 400.0 mg/kg/injection, schedule: Q01DX005 (ip), vehicle: saline with Tween-80 98 % of control

O=C(CCl)NCc1cnccn1
inactive: [4] 95 % of control | [5] 107 % of control | [6] 98 % of control | [8] 104 % of control

c1nc(NCC2CC2)c2[nH]cnc2n1
inactive: dose: 100.0 mg/kg/injection, schedule: Q01DX001 (ip), vehicle: saline 97 % of control | [12] 97 % of control

CCCN(CCC)C(=O)c1ccncc1
inactive: [5] 107 % of control | [6] 101 % of control | [7] 102 % of control | [8] 102 % of control | dose: 400.0 mg/kg/injection, schedule: Q01DX009 (ip), vehicle: saline 91 % of control | dose: 400.0 mg/kg/injection, schedule: Q04DX003 (ip), vehicle: saline 114 % of control

CCCN(CCC)c1ccc(/C=C\c2ccncc2)cc1
inactive: dose: 100.0 mg/kg/injection, schedule: Q01DX001 (ip), vehicle: Klucel (hydroxypropylcellulose) (HPC) 98 % of control | dose: 200.0 mg/kg/injection, schedule: Q01DX001 (ip), vehicle: Klucel (hydroxypropylcellulose) (HPC) 103 % of control | dose: 400.0 mg/kg/injection, schedule: Q01DX001 (ip), vehicle: Klucel (hydroxypropylcellulose) (HPC) 98 % of control

Cc1nn2c(=O)[nH]cnc2c1Cl
inactive: dose: 100.0 mg/kg/injection, schedule: Q01DX009 (ip), vehicle: saline with Tween-80 108 % of control | [1] 91 % of control | dose: 200.0 mg/kg/injection, schedule: Q01DX009 (ip), vehicle: saline with Tween-80 108 % of control | [2] 89 % of control | dose: 400.0 mg/kg/injection, schedule: Q01DX009 (ip), vehicle: saline with Tween-80 105 % of control | [3] 92 % of control

C(=NC(c1ccccc1)(c1ccccc1)c1ccccc1)=NC(c1ccccc1)(c1ccccc1)c1ccccc1
inactive: dose: 25.0 mg/kg/injection, schedule: Q01DX009 (ip), vehicle: gum acacia 88 % of control | dose: 50.0 mg/kg/injection, schedule: Q01DX009 (ip), vehicle: gum acacia 90 % of control | dose: 100.0 mg/kg/injection, schedule: Q04DX003 (ip), vehicle: gum acacia 93 % of control | dose: 200.0 mg/kg/injection, schedule: Q01DX009 (ip), vehicle: gum acacia 88 % of control | dose: 200.0 mg/kg/injection, schedule: Q04DX003 (ip), vehicle: gum acacia 91 % of control | dose: 400.0 mg/kg/injection, schedule: Q01DX009 (ip), vehicle: gum acacia 88 % of control | dose: 400.0 mg/kg/injection, schedule: Q04DX003 (ip), vehicle: gum acacia 86 % of control

Cc1ccc(NC(=O)Oc2cc(C)ccc2C(C)C)cc1
inactive: dose: 100.0 mg/kg/injection, schedule: Q01DX009 (ip), vehicle: Klucel (hydroxypropylcellulose) (HPC) 113 % of control | dose: 200.0 mg/kg/injection, schedule: Q01DX009 (ip), vehicle: Klucel (hydroxypropylcellulose) (HPC) 94 % of control | dose: 400.0 mg/kg/injection, schedule: Q01DX009 (ip), vehicle: Klucel (hydroxypropylcellulose) (HPC) 97 % of control

Nc1nc(=O)n(C2OC(CO)C(O)C2O)c2scnc12 (configuration not stated)
inactive: dose: 50.0 mg/kg/injection, schedule: Q01DX005 (ip), vehicle: saline 107 % of control | dose: 100.0 mg/kg/injection, schedule: Q01DX005 (ip), vehicle: saline 107 % of control

CCCCCC[n+]1ccc(C#N)cc1
inactive: dose: 75.0 mg/kg/injection, schedule: Q01DX001 (ip), vehicle: saline 101 % of control

Cn1cc(C2=CC(=O)C=CC2=O)c2ccccc21
inactive: dose: 5.0 mg/kg/injection, schedule: Q01DX001 (ip), vehicle: saline 102 % of control | dose: 10.0 mg/kg/injection, schedule: Q01DX001 (ip), vehicle: saline 111 % of control | dose: 20.0 mg/kg/injection, schedule: Q01DX001 (ip), vehicle: saline 104 % of control | dose: 40.0 mg/kg/injection, schedule: Q01DX001 (ip), vehicle: saline 98 % of control
